From patent US20090081775A1, “Microscope system and screening method for drugs, physical therapies and biohazards” (Stiftesen Unversitetsforskning Bergen, priority 2005, published 2009)
Several values for one entry are separate records, joined by “and”; a condition that tells them apart may be missing. Equal entries are not always repeated.

System: PC12 cells
Test: Segmentation of WGA stained PC12 cells treated with thymidine (cell size by automated 3D segmentation)
Format: cell-based, rat
Procedure: PC12 and NRK cells were cultured in DMEM supplemented with 10% fetal calf serum and 5% horse serum. For high-resolution fluorescence microscopy and light microscope analysis, PC 12 cells were plated in LabTek™ chambered swell cover glasses (Nalge Nunc Int., Wiesbaden, Germany). Two hours after plating, the cells were stained with two dyes. For the experiments in which the effect of thymidine on cellular size and morphology was investigated, PC12 cells were plated on LabTek™ chambered swell cover glasses. 24 hours after plating, fresh growth medium containing 4 mM thymidine (Sigma) was added to the cells. In the control condition, fresh growth medium without thymidine was used. 24 hours afterwards cells were washed once with prewarmed fresh growth medium and grown further in growth medium without thymidine. […] To specifically display cell borders, cells were stained with wheat germ agglutinin (WGA) conjugated to either AlexaFluor™488 or AlexaFluor™594 (Invitrogen). WGA-AlexaFluor™594 is a lectin which binds glycogenfugates like N-acetylglucosamine and therefore stains biological membranes efficiently. CellTracker™ (CellTracker™, Molecular Probes Inc., Eugene, Oreg., USA) passes freely through cell membranes, but once inside a cell, it is transformed into cell-impermeant reaction products and is retained in living cells through several generations. […]
High resolution, […] fluorescence microscopy was performed with an Olympus IX70 microscope (Olympus Optical Co. Europa GmbH, Hamburg) or a Zeiss Axiovert 200M (Bergman A S, Lilleström, Norway) both equipped with 100× oil-immersion objectives, monochromator-based illumination systems (T.I.L.L. Photonics GmbH, Martinsried, Germany), tripleband filtersets DAPI/FITC/TRITC F61-020 (AHF Analysetechnik AG, Tübingen, Germany) and piezo z-steppers (Physik Instrumente GmbH & Co., Karlsruhe, Germany). […] With both the wide-field and confocal imaging setups, WGA-stained cells were analyzed in 3D by acquiring single focal planes 300 to 400 nm apart from each other in the z-direction spanning the whole cellular volume. […]

[1] = 4 mM thymidine for 24 hours, then 24 hours without, mid plane 2D, mean and SEM, three experiments, listed as tymidine

`Cc1cn([C@H]2C[C@H](O)[C@@H](CO)O2)c(=O)[nH]c1=O` [thymidine] was tested, and the “Dmaj (+): mean major axis length, treated group” value [1] was 15.26 + 0.40 μm and 16.79 + 0.32 μm and 15.83 + 0.25 μm, the “Dmin (+): mean minor axis length, treated group” value [1] was 9.98 + 0.32 μm and 9.21 + 0.19 μm and 9.01 + 0.18 μm and the “mean size of a cell treated with thymidine compared to a control group” value (conclusion from three experiments) was “increase”.
